“Also recorded” adds a separate entry of the source.
Assays:
[1] = target: human MVK polypeptide (Homo sapiens, UniProt Q03426); conditions: reported; cited from earlier work
[2] = target: T1, yeast mevalonate kinase (Saccharomyces cerevisiae, UniProt P07277); assay type: biochemical; conditions: for KMapp of yeast mevalonate kinase: other substrate saturating at 5 mM, 30° C.
T1 construct: 10xHis tag with factor Xa site (pET-16b leader); made in house; host or cells: E. coli BL21(DE3) pLysS
T1 sequence (P07277 1-443): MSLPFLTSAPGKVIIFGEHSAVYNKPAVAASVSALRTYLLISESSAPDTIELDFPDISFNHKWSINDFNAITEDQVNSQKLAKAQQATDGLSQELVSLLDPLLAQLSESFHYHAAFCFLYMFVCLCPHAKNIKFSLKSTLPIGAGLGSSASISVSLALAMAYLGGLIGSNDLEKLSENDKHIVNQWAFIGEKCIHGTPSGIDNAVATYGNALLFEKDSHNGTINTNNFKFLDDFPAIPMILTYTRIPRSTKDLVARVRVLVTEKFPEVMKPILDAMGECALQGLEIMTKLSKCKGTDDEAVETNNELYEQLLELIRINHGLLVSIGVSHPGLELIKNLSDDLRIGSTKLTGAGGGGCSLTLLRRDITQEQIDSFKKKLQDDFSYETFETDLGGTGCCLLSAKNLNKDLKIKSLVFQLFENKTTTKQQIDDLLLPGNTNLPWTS

[3] = target: T2, MVK from the archaeon Methanococcus jannaschii (Methanocaldococcus jannaschii, UniProt Q58487); conditions: Huang et al. 1999; cited from earlier work
T2 sequence (Q58487 1-312): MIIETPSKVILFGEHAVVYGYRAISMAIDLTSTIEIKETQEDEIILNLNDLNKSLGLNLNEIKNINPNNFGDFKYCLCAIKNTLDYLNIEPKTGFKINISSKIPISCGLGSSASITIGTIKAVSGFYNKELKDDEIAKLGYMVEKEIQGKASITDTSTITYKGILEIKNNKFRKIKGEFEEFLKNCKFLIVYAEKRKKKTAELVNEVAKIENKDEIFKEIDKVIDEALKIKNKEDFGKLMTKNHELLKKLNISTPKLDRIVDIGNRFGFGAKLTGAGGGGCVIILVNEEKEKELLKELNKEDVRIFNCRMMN

[4] = tested on: M. mazei MVK; experiment: Inhibition of MVK by diphosphomevalonate and IP, two enzyme system; assay type: biochemical, Methanosarcina mazei; conditions: 1 μM MVK; for Inhibition of M. mazei MVK by isopentenyl monophosphate: 100 μM
Source text: This experiment investigates the inhibitory effect of diphosphomevalonate and […] (IP) on MVK activity using MVK enzymes from S. pneumoniae, yeast, and M. mazei, respectively. […] All chemical reagents were purchased from Sigma unless otherwise specified.

[5] = target: T3, yeast MVK (Saccharomyces cerevisiae, UniProt P07277); experiment: Inhibition of MVK by diphosphomevalonate, two enzyme system (MVK plus PMK); assay type: biochemical; conditions: 1 μM MVK, 1 μM PMK, diphosphomevalonate formed in situ
T3 construct: 10xHis tag with factor Xa site (pET-16b leader); made in house; host or cells: E. coli BL21(DE3) pLysS
T3 sequence (P07277 1-443): T1 sequence (P07277 1-443)
Experimental: (§1) This experiment investigates the inhibitory effect of diphosphomevalonate and […] (IP) on MVK activity using MVK enzymes from S. pneumoniae, yeast, and M. mazei, respectively. […] All reactions were performed in 96-well plates and were monitored by absorbance at 386 nm on a Molecular Devices Spectramax 190 UV-Vis 96-well spectrophotometer. […] All chemical reagents were purchased from Sigma unless otherwise specified. Yeast and M. mazei MVK were obtained as described above and S. pneumoniae MVK and yeast phosphomevalonate kinase (PMK) were obtained as previously described (Andreassi et al., Biochemistry, 43:16461-66, 2004) from pDW02 in pET200D MVK (FIG. 142).

[6] = tested on: S. pneumoniae MVK; experiment: as above; assay type: biochemical, Streptococcus pneumoniae; conditions: 1 μM MVK, 1 μM PMK, diphosphomevalonate formed in situ
Experimental: as §1

[7] = about 1 atmosphere and about 60° F.; cited from earlier work
[8] = Flammability modeling (CAFT) and testing of isoprene; assay type: physicochemical
Source text: Thus, computer modeling and experimental testing were used to determine the flammability limits of isoprene (such as isoprene in the presence of O2, N2, CO2, or any combination of two or more of the foregoing gases) in order to ensure process safety. The flammability envelope is characterized by the lower flammability limit (LFL), the upper flammability limit (UFL), the limiting oxygen concentration (LOC), and the limiting temperature. For a system to be flammable, a minimum amount of fuel (such as isoprene) must be in the presence of a minimum amount of oxidant, typically oxygen. The LFL is the minimum amount of isoprene that must be present to sustain burning, while the UFL is the maximum amount of isoprene that can be present. Above this limit, the mixture is fuel rich and the fraction of oxygen is too low to have a flammable mixture. The LOC indicates the minimum fraction of oxygen that must also be present to have a flammable mixture. […]
Calculated adiabatic flame temperatures (CAFT) along with a selected limit flame temperature for combustion propagation were used to determine the flammability envelope for isoprene. […]
The igniter was comprised of a 1.5 ohm nicrome coil and an AC voltage source on a timer circuit. Using an oscilloscope, it was determined that 34.4 VAC were delivered to the igniter for 3.2 seconds. […]

human MVK polypeptide, sequence (Q03426 whole entry): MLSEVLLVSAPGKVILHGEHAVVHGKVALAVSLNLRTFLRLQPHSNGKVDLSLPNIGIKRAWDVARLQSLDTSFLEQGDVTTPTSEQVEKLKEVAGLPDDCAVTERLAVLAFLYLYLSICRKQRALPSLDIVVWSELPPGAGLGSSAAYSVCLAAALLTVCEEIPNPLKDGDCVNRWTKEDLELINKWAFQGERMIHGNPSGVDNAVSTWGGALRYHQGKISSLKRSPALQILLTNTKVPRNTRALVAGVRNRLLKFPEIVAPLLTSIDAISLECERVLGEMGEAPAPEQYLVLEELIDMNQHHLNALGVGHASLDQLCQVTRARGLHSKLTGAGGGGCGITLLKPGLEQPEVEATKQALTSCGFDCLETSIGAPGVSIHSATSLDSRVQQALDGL

Q: For `CC(C)=CCC/C(C)=C/CC/C(C)=C/CO[P@@](=O)(O)OP(=O)(O)O` (stereo in doubt) [FPP, farnesyl diphosphate], which “Ki for human MVK polypeptide” value [1] is on record?
A: Its value is “nanomolar range”.

Q: For `Nc1ncnc2c1ncn2[C@@H]1O[C@H](COP(=O)(O)OP(=O)(O)OP(=O)(O)O)[C@@H](O)[C@H]1O` [ATP, adenosine triphosphate], which “KMapp of yeast mevalonate kinase” value [2] is on record?
A: Its value is 714 ± 49 µM.

Q: With `CC(C)=CCC/C(C)=C/CC/C(C)=C/CC/C(C)=C/COP(=O)(O)OP(=O)(O)O` [GGPP, geranylgeranyl diphosphate] as the molecule, how does the “Ki for human MVK polypeptide” value [1] read?
A: Its value is “nanomolar range”.

Q: With `CC(C)=CCC/C(C)=C/COP(=O)(O)OP(=O)(O)O` [GPP, geranyl diphosphate] as the molecule, how does the “Feedback inhibition of M. jannaschii MVK” value [3] read?
A: Its value is “feedback inhibited”.

Q: What about the “Ki for human MVK polypeptide” value [1] of the same molecule?
A: The value was “nanomolar range”.

Q: Which “Inhibition of M. mazei MVK by isopentenyl monophosphate” value [4] does the source give for `C=C(C)CCOP(=O)(O)O` [IP, isopentenyl monophosphate] here?
A: The value was “not inhibited”.

Q: For `C=C(C)CCOP(=O)(O)OP(=O)(O)O` [IPP, isopentenyl diphosphate], which “Inhibition of M. mazei MVK by isopentenyl monophosphate” value [4] is on record?
A: The value was “not inhibited”.

Q: For `C[C@@](O)(CCOP(=O)(O)OP(=O)(O)O)CC(=O)O` [diphosphomevalonate], which “Inhibition of M. mazei MVK by diphosphomevalonate” value ([4]; PMK, diphosphomevalonate formed in situ) is on record?
A: The value was “proceed to completion; also recorded: Neither yeast MVK nor M. mazei MVK was inhibited”.

Q: What about the “Inhibition of yeast MVK by diphosphomevalonate” value [5] of the same molecule?
A: The value was “not inhibited; also recorded: Neither yeast MVK nor M. mazei MVK was inhibited”.

Q: And the “Inhibition of S. pneumoniae MVK by diphosphomevalonate” value [6]?
A: Its value is “inhibited”.

Q: Which LFL [7] does the source give for `CCO` [ethanol] here?
A: The LFL was “about 3.3 vol %”.

Q: And the LOC [7]?
A: The LOC was “about 8.7 vol %”.

Q: With `C=CC(=C)C` [isoprene, 2-methyl-1,3-butadiene] as the molecule, how does the “limiting oxygen concentration (LOC)” value ([8]; isoprene, O2, N2, and CO2 mixture at 40° C. and 1 atmosphere) read?
A: Its value is 9.5 vol %.

Q: What about the limiting temperature ([8]; lowest temperature at which combustion can propagate) of the same molecule?
A: The limiting temperature was “about −54 °C”.

Q: For `CC(O)(CCO)CC(=O)O` (stereo not shown) [mevalonate], which “KMapp of yeast mevalonate kinase” value [2] is on record?
A: Its value is 131 ± 8 µM.

B1: yeast mevalonate kinase: mevalonate kinase from Saccharomyces cerevisiae, expressed in E. coli and purified to >95% (protein, UniProt P07277 1-443, looked up)
Mevalonate kinase: T1 sequence (P07277 1-443)
Q: Which “turnover number (kcat)” value ([2]; yeast mevalonate kinase) does the source give for B1 here?
A: The value was 38 ± 5 s⁻¹.

— patent US9464301B2, “Increased isoprene production using the archaeal lower mevalonate pathway” (Danisco US Inc., priority 2008, dated 2016)
